# Measured values as given in patent US12492188B2, “1H-benzo[D]imidazole derivatives as TLR9 inhibitors for the treatment of fibrosis” (BRISTOL-MYERS SQUIBB COMPANY, priority 2020, dated 2025).
# pIC50: −log10 of the molar value. Where two headings read alike, the source gives them in different places.
# Biological target: T1, human TLR9 (Homo sapiens, UniProt Q9NR96)
# T1 construct: host or cells: HEK-Blue cells (HEK293-derived reporter line)
# T1 sequence (Q9NR96 26-1032): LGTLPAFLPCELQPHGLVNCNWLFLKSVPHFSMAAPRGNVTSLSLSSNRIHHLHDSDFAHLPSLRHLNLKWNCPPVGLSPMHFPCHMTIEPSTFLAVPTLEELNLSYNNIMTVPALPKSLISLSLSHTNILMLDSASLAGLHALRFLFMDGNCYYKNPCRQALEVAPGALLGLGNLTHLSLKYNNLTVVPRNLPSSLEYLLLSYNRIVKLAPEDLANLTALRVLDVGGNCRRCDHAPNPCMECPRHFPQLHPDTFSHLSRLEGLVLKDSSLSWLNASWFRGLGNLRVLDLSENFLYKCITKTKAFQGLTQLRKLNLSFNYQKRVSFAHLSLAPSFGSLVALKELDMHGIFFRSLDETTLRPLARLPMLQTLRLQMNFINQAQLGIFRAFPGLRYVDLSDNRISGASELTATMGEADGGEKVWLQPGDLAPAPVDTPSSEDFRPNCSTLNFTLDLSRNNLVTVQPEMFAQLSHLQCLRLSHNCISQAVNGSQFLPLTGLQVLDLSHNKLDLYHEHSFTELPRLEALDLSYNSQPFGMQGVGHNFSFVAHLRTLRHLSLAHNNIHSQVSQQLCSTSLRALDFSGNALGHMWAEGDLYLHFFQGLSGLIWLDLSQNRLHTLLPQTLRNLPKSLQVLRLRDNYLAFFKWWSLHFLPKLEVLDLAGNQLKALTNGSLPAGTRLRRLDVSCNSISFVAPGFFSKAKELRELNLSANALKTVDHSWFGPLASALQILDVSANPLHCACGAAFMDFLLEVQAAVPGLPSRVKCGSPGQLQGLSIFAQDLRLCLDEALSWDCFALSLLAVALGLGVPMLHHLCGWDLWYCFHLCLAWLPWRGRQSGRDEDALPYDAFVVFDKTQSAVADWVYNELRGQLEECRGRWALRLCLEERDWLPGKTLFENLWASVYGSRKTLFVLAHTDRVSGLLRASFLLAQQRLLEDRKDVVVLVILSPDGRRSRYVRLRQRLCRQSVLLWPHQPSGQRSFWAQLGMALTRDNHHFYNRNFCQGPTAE
# Assay: TLR9 inhibition reporter assay (HEK-Blue cells, secreted embryonic alkaline phosphatase reporter)
# Assay type: cell-based
# Procedure: TLR7/8/9 Inhibition Reporter Assays
# HEK-Blue™-cells (Invivogen) overexpressing human TLR7, TLR8 or TLR9 receptors were used for screening inhibitors of these receptors using an inducible SLAP (secreted embryonic alkaline phosphatase) reporter gene under the control of the […] minimal promoter fused to five NF-κB and AP-1-binding sites. Briefly, cells are seeded into Greiner 384 well plates (15000 cells per well for TLR7, 20,000 for TLR8 and 25,000 for TLR9) and then treated with test compounds in DMSO to yield a final dose response concentration range of 0.05 nM-50 μM. After a 30 minute compound pre-treatment at room temperature, the cells are then stimulated with a TLR7 ligand (gardiquimod at a final concentration of 7.5 μM), TLR8 ligand (R848 at a final concentration of 15.9 μM) or TLR9 ligand (ODN2006 at a final concentration of 5 nM) to activate NF-κB and AP-1 which induce the production of SLAP. After a 22 hour incubation at 37° C., […], SLAP levels are determined with the addition of HEK-Blue™ Detection reagent (Invivogen), a cell culture medium that allows for detection of SLAP, according to manufacturer's specifications. The percent inhibition is determined as the […] in the HEK-Blue signal present in wells treated with agonist plus DMSO alone compared to wells treated with a known inhibitor.
# [1] = HEK-Blue cells overexpressing human TLR9, stimulated with ODN2006 5 nM, read-out: TLR 9 IC50
# [2] = HEK-Blue cells overexpressing human TLR9, stimulated with ODN2006 5 nM, 22 hour incubation, reporter readout
SMILES,pIC50,pIC50 [1],pIC50 [2],pIC50 (HEK-Blue human TLR9 reporter cells)
"COCCN1CCN(c2ccc(-c3cc(C)c4nc(-c5ccc(S(C)(=O)=O)cc5)n(C)c4c3)cc2)CC1 [Example 173, 6-(4-(4-(2-methoxyethyl)piperazin-1-yl)phenyl)-1,4-dimethyl-2-(4-(methylsulfonyl)phenyl)-1H-benzo[d]imidazole]",5.96,5.95,–,–
"COc1ccc(-c2nc3ccc(C4CCN(C5CCN(C6CC6)CC5)CC4)c(F)c3[nH]2)cc1OC [Example 175, 6-(1′-cyclopropyl-[1,4′-bipiperidin]-4-yl)-2-(3,4-dimethoxyphenyl)-7-fluoro-1H-benzo[d]imidazole]",6.28,6.28,–,–
"COc1ccc(-c2nc3ccc(C4CCN(C5CCN(C(C)C)CC5)CC4)c(F)c3[nH]2)cc1OC [Example 132, 2-(3,4-dimethoxyphenyl)-7-fluoro-6-(1′-isopropyl-[1,4′-bipiperidin]-4-yl)-1H-benzo[d]imidazole]",6.70,6.69,–,–
"Cc1cc(-c2ccc(N3CCN(CC4CCC4)CC3)cc2)cc2c1nc(-c1ccc(S(C)(=O)=O)cc1)n2C [Example 172, 6-(4-(4-(cyclobutylmethyl)piperazin-1-yl)phenyl)-1,4-dimethyl-2-(4-(methylsulfonyl)phenyl)-1H-benzo[d]imidazole]",5.74,5.75,–,–
"COc1ccc(-c2nc3c(F)cc(C4CCN(C5CCN(C(C)C)CC5)CC4)cc3[nH]2)cc1OC [Example 83, 2-(3,4-dimethoxyphenyl)-4-fluoro-6-(1′-isopropyl-[1,4′-bipiperidin]-4-yl)-1H-benzo[d]imidazole]",–,–,6.68,–
"Cc1cc(-c2ccc(OC3CCN(C(C)C)CC3)cc2)cc2c1nc(-c1ccc(S(C)(=O)=O)cc1)n2C [Example 416, 6-(4-((1-isopropylpiperidin-4-yl)oxy)phenyl)-1,4-dimethyl-2-(4-(methylsulfonyl)phenyl)-1H-benzo[d]imidazole]",–,5.92,5.92,–
"CN(C)C1CCN(Cc2ccc(-c3ccc4nc(-c5ccc(F)c(F)c5)n(C)c4c3)cc2)CC1 [Example 382, 1-(4-(2-(3,4-difluorophenyl)-1-methyl-1H-benzo[d]imidazol-6-yl)benzyl)-N,N-dimethylpiperidin-4-amine]",–,5.49,8.49,–
"Cc1cc(CN2CCC(c3cc(C)c4nc(-c5ccc(S(C)(=O)=O)cc5)n(C)c4c3)CC2)cc(C)n1 [Example 418, 6-(1-((2,6-dimethylpyridin-4-yl)methyl)piperidin-4-yl)-1,4-dimethyl-2-(4-(methylsulfonyl)phenyl)-1H-benzo[d]imidazole]",–,5.60,5.60,–
"Cc1noc(C)c1-c1nc2c(C)cc(C3CCN(C4CCN(CC(C)C)CC4)CC3)cc2[nH]1 [Example 71, 4-(6-(1′-isobutyl-[1,4′-bipiperidin]-4-yl)-4-methyl-1H-benzo[d]imidazol-2-yl)-3,5-dimethylisoxazole]",–,5.75,5.74,–
"Cc1cc(-c2ccc(N3CCN(CC(C)C)CC3)cc2)cc2c1nc(-c1ccc(S(C)(=O)=O)cc1)n2C [Example 170, 6-(4-(4-isobutylpiperazin-1-yl)phenyl)-1,4-dimethyl-2-(4-(methylsulfonyl)phenyl)-1H-benzo[d]imidazole]",5.36,5.35,–,–
"Cc1cc(C2CCN(C3CCN(CC(C)C)CC3)CC2)cc2[nH]c(-c3cccc(OC(F)F)c3)nc12 [Example 76, 2-(3-(difluoromethoxy)phenyl)-6-(1′-isobutyl-[1,4′-bipiperidin]-4-yl)-4-methyl-1H-benzo[d]imidazole]",–,6.59,6.59,–
"Cc1cc(C2CCN(C3CCN(CC(C)C)CC3)CC2)cc2[nH]c(-c3ccc(OC(F)F)cc3)nc12 [Example 78, 2-(4-(difluoromethoxy)phenyl)-6-(1′-isobutyl-[1,4′-bipiperidin]-4-yl)-4-methyl-1H-benzo[d]imidazole]",–,6.57,6.57,–

# More lines, now with the values ahead:
pIC50,pIC50 [1],pIC50 [2],pIC50 (HEK-Blue human TLR9 reporter cells),SMILES
–,7.19,7.19,–,"CC(C)CN1CCC(N2CCC(c3ccc4nc(-c5ccc(S(C)(=O)=O)cc5)n(C5CC5)c4c3F)CC2)CC1 [Example 415, 1-cyclopropyl-7-fluoro-6-(1′-isobutyl-[1,4′-bipiperidin]-4-yl)-2-(4-(methylsulfonyl)phenyl)-1H-benzo[d]imidazole]"
–,6.88,–,6.89,"Cc1cc(C2CCN(C3CC4CCC(C3)N4C3CC3)CC2)cc2c1nc(-c1ccc(S(C)(=O)=O)c(F)c1)n2C (centres unmarked) [Example 345, 6-(1-(8-cyclopropyl-8-azabicyclo[3.2.1]octan-3-yl)piperidin-4-yl)-2-(3-fluoro-4-(methylsulfonyl)phenyl)-1,4-dimethyl-1H-benzo[d]imidazole]"
7.72,7.72,–,–,"Cc1cc(C2CCN(C3CCCN(CC4CC4)CC3)CC2)cc2c1nc(-c1ccc(S(C)(=O)=O)cc1)n2C (centres unmarked) [Example 137, 6-(1-(1-(cyclopropylmethyl)azepan-4-yl)piperidin-4-yl)-1,4-dimethyl-2-(4-(methylsulfonyl)phenyl)-1H-benzo[d]imidazole]"
6.77,6.76,–,–,"COc1ccc(-c2nc3c(C)cc(C4CCN(C5CC6CCC(C5)N6CC5CCC5)CC4)cc3n2C)cc1OC (single isomer, unassigned) [Example 151, 6-(1-(8-(cyclobutylmethyl)-8-azabicyclo[3.2.1]octan-3-yl)piperidin-4-yl)-2-(3,4-dimethoxyphenyl)-1,4-dimethyl-1H-benzo[d]imidazole]"
–,7.31,7.31,–,"COc1cc(-c2nc3c(C)cc(C4CCN(C5CCN(CC(C)C)CC5)CC4)cc3[nH]2)cn2ncnc12 [Example 61, 6-(6-(1′-isobutyl-[1,4′-bipiperidin]-4-yl)-4-methyl-1H-benzo[d]imidazol-2-yl)-8-methoxy-[1,2,4]triazolo[1,5-a]pyridine tris(2,2,2-trifluoroacetate)]"
–,7.36,7.36,–,"CC(C)N1CC2(CN(Cc3ccc(-c4cc(F)c5nc(-c6ccc(S(C)(=O)=O)cc6)n(C6CC6)c5c4)cc3)C2)C1 [Example 410, 1-cyclopropyl-4-fluoro-6-(4-((6-isopropyl-2,6-diazaspiro[3.3]heptan-2-yl)methyl)phenyl)-2-(4-(methylsulfonyl)phenyl)-1H-benzo[d]imidazole]"
–,7.43,7.43,–,"Cc1cc(C2CCN(C3CCN(CC(C)C)CC3)CC2)cc2[nH]c(-c3ccc4cnccc4c3)nc12 [Example 74, 6-(6-(1′-isobutyl-[1,4′-bipiperidin]-4-yl)-4-methyl-1H-benzo[d]imidazol-2-yl)isoquinoline]"
7.33,7.33,–,–,"COc1ccc(-c2nc3c(C)cc(C4CCN(C5CC6CCC(C5)N6CC5CC5)CC4)cc3n2C)cc1OC (centres unmarked) [Example 149, 6-(1-(8-(cyclopropylmethyl)-8-azabicyclo[3.2.1]octan-3-yl)piperidin-4-yl)-2-(3,4-dimethoxyphenyl)-1,4-dimethyl-1H-benzo[d]imidazole]"
7.07,7.07,–,–,"Cc1cc(C2CCN(C3CC4(C3)CN(CC3CCC3)C4)CC2)cc2c1nc(-c1ccc(S(C)(=O)=O)cc1)n2C [Example 143, 6-(1-(2-(cyclobutylmethyl)-2-azaspiro[3.3]heptan-6-yl)piperidin-4-yl)-1,4-dimethyl-2-(4-(methylsulfonyl)phenyl)-1H-benzo[d]imidazole]"
